From patent US9545386B2, “Methods of treating infectious diseases” (SLIPPERY ROCK UNIVERSITY FOUNDATION, INC., priority 2007, dated 2017)

Key:
Assay in all cases: In vitro bioassay of infective larvae, immobilization and lethal doses (eosin, Probit)
Type in all cases: cell-based
[1] = tested on: Ancylostoma caninum infective larvae; conditions: for 24 hr ID50 ± 95% confidence intervals: immobilize 50%; for 24 hr ID90 ± 95% confidence intervals: immobilize 90%
Protocol: (§1) Strongyloides stercoralis infective larvae were harvested from charcoal coprocultures in nematode saline solution. The larvae were supplied by the Parasitology Laboratory, Department of Pathobiology, University of Pennsylvania. The strain of larvae was a human strain of the parasitic nematode that had been maintained for over ten years in canines by daily prednisolone treatment (2 mg/kg per os, once daily. Parastrongyloides trichosuri and Ancylostoma caninum infective larvae were also supplied by the same source as for S. stercoralis. Haemonchus contortus infective larvae were harvested from charcoal coprocultures in nematode saline solution prepared from infected sheep feces obtained from Merck Parasites Laboratory.
(§2) The 24 hr 50% and 90% immobilization doses (ID50 and ID90), and 50% and 90% lethal doses (LD50 and LD90) of eryngial (mg/ml) were investigated in vitro using infective larvae of all four parasitic nematodes. Each species was exposed to a range of eryngial dilutions by adding known volumes of a homogeneous ‘wormy’ solution (infective larvae in nematode saline solution) to known volumes of an eryngial stock suspension (10 mg/ml of nematode saline solution). Each dilution, including the control (0 mg/ml eryngial), was prepared in triplicate and also contained eosin (0.01%, w/v), which was used as an indicator of mortality, and Triton X-100 (1.0%, v/v).
(§3) Using S. stercoralis, P. trichosuri, H. contortus and A. caninum infective larvae, eryngial dilutions, excluding the controls, ranged from 0.05 to 1.15 mg/ml; 0.01 to 1.0 mg/ml; 0.5 to 2.0 mg/ml; and 0.8 to 3.0 mg/ml, respectively. Sub-sample (10 μl) counts of larvae that were mobile, immobile but not stained and stained, were done at the start of each bioassay and at 24 hr intervals for two days. Each sub-sample contained approximately 50 infective larvae.
(§4) Probit analysis was used to determine 24 hr and 48 hr immobilization and lethal doses for eryngial and ivermectin, respectively.

[2] = tested on: Parastrongyloides trichosuri infective larvae; conditions: for 24 hr ID50 ± 95% confidence intervals / 24 hr ID90 ± 95% confidence intervals / 24 hr LD50 ± 95% confidence intervals / 24 hr LD90 ± 95% confidence intervals: P. trichosuri infective larvae, 24 hr in vitro; for 24 hr ID50 ± 95% confidence intervals: immobilize 50%; for 24 hr ID90 ± 95% confidence intervals: immobilize 90%; for 24 hr LD50 ± 95% confidence intervals: kill 50%; for 24 hr LD90 ± 95% confidence intervals: kill 90%
Protocol: as §1, §2, §3, §4

[3] = tested on: Strongyloides stercoralis infective larvae; conditions: for 24 hr ID50 ± 95% confidence intervals / 48 hr ID50 ± 95% confidence intervals: immobilize 50%; for 24 hr ID50 ± 95% confidence intervals / 24 hr ID90 ± 95% confidence intervals / 24 hr LD50 ± 95% confidence intervals / 24 hr LD90 ± 95% confidence intervals: 24 hr in vitro; for 48 hr ID50 ± 95% confidence intervals / 48 hr ID90 ± 95% confidence intervals / 48 hr LD50 ± 95% confidence intervals / 48 hr LD90 ± 95% confidence intervals: 48 hr in vitro; for 24 hr ID90 ± 95% confidence intervals / 48 hr ID90 ± 95% confidence intervals: immobilize 90%; for 24 hr LD50 ± 95% confidence intervals / 48 hr LD50 ± 95% confidence intervals: kill 50%; for 24 hr LD90 ± 95% confidence intervals / 48 hr LD90 ± 95% confidence intervals: kill 90%
Protocol: as §1, §2, §3
(§5) The 48-hr immobilization doses (ID50 and ID90) and lethal doses (LD50 and LD90) of eryngial and ivermectin also were investigated, using S. stercoralis and H. contortus infective larvae. Each bioassay was conducted as described hereinabove. Using S. stercoralis and H. contortus infective larvae, ivermectin dilutions (not including the controls) ranged from 0.03 to 0.3 mg/ml and from 0.009 to 0.1 mg/ml, respectively.
as §4

[4] = tested on: Haemonchus contortus infective larvae; conditions: for 24 hr ID50 ± 95% confidence intervals / 48 hr ID50 ± 95% confidence intervals: immobilize 50%; for 24 hr ID50 ± 95% confidence intervals / 24 hr ID90 ± 95% confidence intervals / 24 hr LD50 ± 95% confidence intervals / 24 hr LD90 ± 95% confidence intervals: 24 hr in vitro; for 48 hr ID50 ± 95% confidence intervals / 48 hr ID90 ± 95% confidence intervals / 48 hr LD50 ± 95% confidence intervals / 48 hr LD90 ± 95% confidence intervals: 48 hr in vitro; for 24 hr ID90 ± 95% confidence intervals / 48 hr ID90 ± 95% confidence intervals: immobilize 90%; for 24 hr LD50 ± 95% confidence intervals / 48 hr LD50 ± 95% confidence intervals: kill 50%; for 24 hr LD90 ± 95% confidence intervals / 48 hr LD90 ± 95% confidence intervals: kill 90%
Protocol: as §1, §2, §3, §5, §4

[5] = A. caninum infective larvae, 24 hr in vitro
[6] = A. caninum infective larvae, 24 hr in vitro, listed as eryngial
[7] = S. stercoralis infective larvae
[8] = S. stercoralis infective larvae, listed as eryngial
[9] = S. stercoralis, eryngial vs ivermectin
[10] = H. contortus infective larvae, 48 hr, eryngial vs ivermectin
[11] = H. contortus infective larvae, listed as eryngial

## CCCCCCCCC/C=C/C=O [Eryngial, trans-2-dodecenal]
[1]; 24 hr ID50, A. caninum relative to P. trichosuri
  increase in the dose required to immobilize 50%: 41.9 fold
[1]; [5]
  24 hr ID50 ± 95% confidence intervals: 0.545 (0.440-0.641) mg/ml
  24 hr ID90 ± 95% confidence intervals: 0.867 (0.717-1.445) mg/ml
[1]; [6]
  24 hr ID50 ± 95% confidence intervals: 0.545 mg/mL
  24 hr ID90 ± 95% confidence intervals: 0.867 mg/mL
[1]; A. caninum infective larvae, kill 50%, 24 hr in vitro
  24 hr LD50 ± 95% confidence intervals: 0.608 (0.429-0.765) mg/ml
[1]; A. caninum infective larvae, kill 90%, 24 hr in vitro
  24 hr LD90 ± 95% confidence intervals: 1.178 (0.913-2.100) mg/ml
[2]; 24 hr ID90, P. trichosuri compared to A. caninum
  increased sensitivity to eryngial (90% immobilization): 9.4 fold
[2]; 24 hr ID90, P. trichosuri over H. contortus
  increased sensitivity to eryngial (90% immobilization): 8.5 fold
[2]; 24 hr LD50, P. trichosuri over A. caninum
  increase in sensitivity to eryngial (50% mortality doses): 5.8 fold
[2]; 24 hr LD50, P. trichosuri over H. contortus
  increase in sensitivity to eryngial (50% mortality doses): 17.1 fold
[2]; 24 hr LD90, P. trichosuri over A. caninum
  increased sensitivity to eryngial (90% mortality doses): 4 fold
[2]; 24 hr LD90, P. trichosuri over H. contortus
  increased sensitivity to eryngial (90% mortality doses): 9.3 fold
[2]
  24 hr ID50 ± 95% confidence intervals: 0.013 (0.007-0.030) mg/ml
  24 hr ID90 ± 95% confidence intervals: 0.092 (0.051-0.201) mg/ml
  24 hr LD50 ± 95% confidence intervals: 0.105 (0.084-0.133) mg/ml
  24 hr LD90 ± 95% confidence intervals: 0.297 (0.214-0.515) mg/ml
[2]; listed as eryngial
  24 hr ID50 ± 95% confidence intervals: 0.013 mg/mL
  24 hr ID90 ± 95% confidence intervals: 0.092 mg/mL
  24 hr LD50 ± 95% confidence intervals: 0.105 mg/mL
  24 hr LD90 ± 95% confidence intervals: 0.297 mg/mL
[3]; 24 hr ID50, S. stercoralis compared with A. caninum
  decrease in the 50% immobilization dose: 9.4 fold
[3]; 24 hr ID50, S. stercoralis compared with H. contortus
  decrease in the 50% immobilization dose: 2.3 fold
[3]; 24 hr ID50, S. stercoralis relative to P. trichosuri
  less sensitive to eryngial than P. trichosuri: 4.5 fold
[3]; 24 hr ID90, S. stercoralis over A. caninum
  increased sensitivity to eryngial (90% immobilization): 10.7 fold
[3]; 24 hr LD50, S. stercoralis than A. caninum
  increase in sensitivity to eryngial (50% mortality doses): 7.2 fold
[3]; 24 hr LD50, S. stercoralis than H. contortus
  increase in sensitivity to eryngial (50% mortality doses): 21.1 fold
[3]; 24 hr LD90, S. stercoralis over A. caninum
  increased sensitivity to eryngial (90% mortality doses): 8.2 fold
[3]; 24 hr LD90, S. stercoralis over H. contortus
  increased sensitivity to eryngial (90% mortality doses): 19.3
[3]; S. stercoralis L3 larvae, eryngial vs ivermectin
  times more effective than ivermectin (48 hr ID90): 3.9 times
[3]; S. stercoralis infective larvae, eryngial vs ivermectin
  times more potent than ivermectin (48 hr ID50): 2.5 times
[3]; [7]
  24 hr ID50 ± 95% confidence intervals: 0.058 (0.054-0.061) mg/ml
  48 hr ID50 ± 95% confidence intervals: 0.054 (0.047-0.061) mg/ml
  24 hr ID90 ± 95% confidence intervals: 0.081 (0.076-0.088) mg/ml
  48 hr ID90 ± 95% confidence intervals: 0.077 (0.066-0.101) mg/ml
  24 hr LD50 ± 95% confidence intervals: 0.085 (0.073-0.102) mg/ml
  48 hr LD50 ± 95% confidence intervals: 0.069 (0.058-0.085) mg/ml
  24 hr LD90 ± 95% confidence intervals: 0.143 (0.115-0.245) mg/ml
  48 hr LD90 ± 95% confidence intervals: 0.105 (0.085-0.174) mg/ml
[3]; [8]
  24 hr ID50 ± 95% confidence intervals: 0.058 mg/mL
  48 hr ID50 ± 95% confidence intervals: 0.054 mg/mL
  24 hr ID90 ± 95% confidence intervals: 0.081 mg/mL
  48 hr ID90 ± 95% confidence intervals: 0.077 mg/mL
  24 hr LD50 ± 95% confidence intervals: 0.085 mg/mL
  48 hr LD50 ± 95% confidence intervals: 0.069 mg/mL
  24 hr LD90 ± 95% confidence intervals: 0.143 mg/mL
  48 hr LD90 ± 95% confidence intervals: 0.105 mg/mL
[3]; [9]
  times more effective than ivermectin (48 hr LD50): 4.4 times
  times more potent than ivermectin (48 hr LD90): 9.9 times
[4]; 24 hr ID50, H. contortus relative to P. trichosuri
  increase in the dose required to immobilize 50%: 10.2 fold
[4]; [10]
  times more effective than ivermectin at eliciting 90% mortality: 2.9 times
  times more potent at killing 50% than ivermectin: 3.7 times
[4]; H. contortus infective larvae
  24 hr ID50 ± 95% confidence intervals: 0.132 (0.078-0.186) mg/ml
  48 hr ID50 ± 95% confidence intervals: 0.313 (0.143-0.453) mg/ml
  24 hr ID90 ± 95% confidence intervals: 0.782 (0.641-0.998) mg/ml
  48 hr ID90 ± 95% confidence intervals: 0.761 (0.530-1.488) mg/ml
  24 hr LD50 ± 95% confidence intervals: 1.793 (1.516-2.558) mg/ml
  48 hr LD50 ± 95% confidence intervals: 1.361 (1.284-1.449) mg/ml
  24 hr LD90 ± 95% confidence intervals: 2.765 (2.010-5.915) mg/ml
  48 hr LD90 ± 95% confidence intervals: 2.360 (2.109-2.768) mg/ml
[4]; [11]
  24 hr ID50 ± 95% confidence intervals: 0.132 mg/mL
  48 hr ID50 ± 95% confidence intervals: 0.313 mg/mL
  24 hr ID90 ± 95% confidence intervals: 0.782 mg/mL
  48 hr ID90 ± 95% confidence intervals: 0.761 mg/mL
  24 hr LD50 ± 95% confidence intervals: 1.793 mg/mL
  48 hr LD50 ± 95% confidence intervals: 1.361 mg/mL
  24 hr LD90 ± 95% confidence intervals: 2.765 mg/mL
  48 hr LD90 ± 95% confidence intervals: 2.360 mg/mL
